US20120108464A1, “TEST SYSTEMS, METHODS AND USES INVOLVING AS160 PROTEIN” (SANOFI-AVENTIS, priority 2009, published 2012)

Legend:
[1] = system: L6-GLUT4myc cells containing AS160; test: Uptake of 2-deoxyglucose in response to insulin (Cytostar-T scintillating microplates); type: cell-based, rat; conditions: FIG. 6
Protocol: For all examples the L6-GLUT4myc cells containing AS160 were grown in MEMα (PAN) supplemented with 10% fetal calf serum (FCS) (PAA, tet-free), 2 μg/ml blasticidin (Calbiochem), 0.5 μg/ml puromycin (InvivoGen), 200 μg/ml hygromycin (Invitrogen). Expression of AS160 was induced with 1 μg/ml doxycyclin (Sigma). L6-wildtype (wt) (ATCC: CRL-1458) cells were grown in MEMα+GlutaMax (Gibco) supplemented with 10% FCS (PAA, tet-free) and 1% penicillin/streptomycin (PAA). L6-GLUT4myc cells were grown in MEMα+GlutaMax (Gibco) supplemented with 10% FCS (PAA, tet-free), 1% penicillin/streptomycin (PAA) and 2 μg/ml blasticidin (Calbiochem). Expression of AS160 was induced by inbubation of the cells for 48 hours with 1 μg/ml doxycycline (Sigma). All cells were grown at 37° C. and 5% CO2 L6-GLUT4myc cells containing AS160 were incubated in starve medium (MEMα) 3-4 hours prior to each experiment.
To examine glucose uptake of the cells, the respective cells were plated in 96 well Cytostar-T scintillating microplates (Amersham/GE). After 48 hours cells were serum-starved (3-4 hours) and treated with the indicated Insuman (human insulin) concentartions a for 20 minutes. […] Nonspecific uptake was determined in the presence of 40 μM cytochalasin B (Calbiochem). […] Uptake of 2-deoxyglucose is measured as counts per […] and presented as fold over basal. […]

[2] = system: L6-GLUT4myc cells transiently transfected with pCDNA5/TO/GFP; test: Functionality of the T-REx system: tetracycline-inducible GFP expression plasmid; type: cell-based, rat; conditions: doxycycline 1 μg/ml versus absence of doxycycline
Protocol: FIG. 4: Functionality of the T-Rex system. […]T4myc cells were transiently transfected with […] pCDNA5/TO/GFP. In the absence of doxycycline only a minor number of cells express GFP (A). Addition of doxycycline (1μg/ml) increases the number of GFP positive cells up to about 10 fold (B). L6 cells stably expressing GLUT4myc ([…]T4myc, described in Wang et al. 1998) were subsequently used for the tet-inducible expression of AS160 protein. For this purpose the T-REx system from Invitrogen was used. The regulatory plasmid in this system controls the constitutive expression of the tet-repressor (tet-R) under the control of a CMV (cytomegalovirus) promoter. In the absence of tetracyline (or doxycycline) the repressor binds to specific tetracycline-operator sequences (TetO2) and thereby represses expression. Addition of tetracycline (or doxycycline) induces expression of the protein of interest. To allow a stable integration of the tet-system in […]T4myc cells the tet-repressor was islolated from pCDNA3.1 (+)/TR (Invitrogen) and cloned into the Nhel and Notl sites of pIRESpuro2 (FIG. 3). Subsequently pIRESpuro2/TR was transfected into […]T4myc cells. Clones stably expressing the regulatory plasmid were selected with 0.5 μg/ml puromycin (InvivoGen). Functionality of the tet-repressor was controlled with a tetracycline-inducible GFP expression plasmid (pCDNA5/TO-GFP). […]

| Compound | Uptake of 2-deoxyglucose, fold over basal ([1]; with expression of AS160 (isoform 1, doxycycline-induced), 100 nM insulin, 20 minutes) | Uptake of 2-deoxyglucose, fold over basal (maximum) ([1]; without expression of AS160 (isoform 1), insulin 20 minutes) | Increase of the number of GFP positive cells [2] |
| --- | --- | --- | --- |
| insulin: Insuman (human insulin) | about 6 fold | about 4 fold | – |
| C[C@H]1c2cccc(O)c2C(=O)C2=C(O)[C@]3(O)C(=O)C(C(N)=O)=C(O)[C@@H](N(C)C)[C@@H]3[C@@H](O)[C@@H]21 [doxycycline] | – | – | about 10 fold |
